Measured values as given in patent US20150174034A1, “TYROSINASE INHIBITORS” (Avon Products, Inc., priority 2013, published 2015).

Assays:
[1] = test system: MELANODERM (MEL-300-B) human skin model; test: 3D skin equivalent tissue pigmentation assay (MELANODERM); format: cell-based; settings: topical, tissues collected Day 11
Experimental: The effect of the tyrosinase inhibitors on melanin levels was investigated using a MELANODERM™ (MEL-300-B, MatTek Corp., Ashland, Mass.) human skin model. MELANODERM™ is a viable reconstituted three-dimensional human skin equivalent containing melanocytes derived from African-American donors. Tissues were maintained in culture medium EPI-100-NMM-113 at 37° C. as recommended by the manufacturer.
10 μl of the solution was applied topically to the MELANODERM™ tissue while culture medium was added on days 1, 2, 4, 7, and 9. Control tissues were treated with the 10 μl of corresponding vehicle only. On Day 11, tissues were collected and homogenized in a buffer containing 1% SDS, 50 mM EDTA, and 10 mM Tris, pH 6.8. To each homogenate, protease K (5 mg/ml) was added and incubated overnight at 45° C. Additional protease K was added and incubated for 4 hours at 45° C., followed by the addition of 0.5M sodium carbonate and 30% H2O2 and incubation at 80° C. for 30 minutes. The samples were cooled down to room temperature, and extracted with chloroform/methanol (2:1). After centrifugation at 10,000 g for 10 minutes, absorbance of the top phase was measured at 450 nm. Percent change in melanin levels in treated tissue was calculated relative to control. The average percent change in melanin relative to control of the three tissues is reported in the Table 4 in accordance with the scale: 0: <7% decrease in pigmentation level; +: between 8-14% decrease; ++: between 15-20% decrease; +++: between 21-30% decrease; ++++: >31% decrease; C=cytotoxic

B16 mouse melanoma cells = test: Inhibition of melanin production, B16 melanoma cell assay; format: cell-based; settings: 4 days, alpha MSH, normalized to cell viability
Experimental: The effects of various test compounds on melanin levels were determined by performing assays using B16 melanoma cells. These cells are known to constitutively produce melanin and are a commonly utilized and accepted model system for monitoring the inhibition of melanin synthesis. The B16 mouse melanoma cells were seeded (ATCC, cat. #: CRL-6475) into 96-well tissue culture-treated plates (BD Falcon) and treated with test actives or controls in phenol red free DMEM (Mediatech; cat. #: 17-205-CV) with 2 nanogram/ml of alpha MSH (Fluka; cat #:63605). The cells were examined for their ability to modulate pigment formation. […] Tests were performed in 6 replicates each. Following the treatment period (4 days), the level of pigment produced or melanin synthesized was quantified by reading the absorbance at 540 nm using a standard microplate reader (Tecan Group Ltd.).
After quantifying the amount of melanin, cell viability was determined using the MTT conversion method. The MTT conversion method measures the reduction of the MTT dye from a yellow colored, water-soluble, tetrazolium salt to a bluish-purple colored insoluble formazan precipitate by NAD(P)H-dependent microsomal dehydrogenase enzymes, which only function in viable cells. The intensity of the blue color is indicative of cell viability. After quantifying the amount of melanin pigment produced, the cells were exposed to MTT dye solution (1 mg/ml) for two to three hours. Formazan material was solubilized with reagent alcohol (95% ethanol: 5% isopropanol) and shaken on an orbital shaker for 15-30 minutes. MTT dye uptake and conversion by viable cells were determined by measuring the extracted formazan at 570 nm using a microplate reader. Total pigmentation was calculated, normalized to cell viability values and expressed as the average percent change in melanin activity relative to control of the six experiments performed.
The assay data in Table 2 uses the following scale: 0: <10% decrease; +: between […] decrease; ++: 31-50% decrease; +++: between 51-70% decrease; ++++: >71% decrease; C=cytotoxic

[2] = test system: Human Epidermal Melanocytes, neonatal, darkly pigmented donor (HEMn-DP); test: Human primary melanocyte pigmentation assay (HEMn-DP); format: cell-based; settings: 5 days, normalized to cell viability
Experimental: The effects of various test compounds on melanin productions were determined by performing assays using Human Epidermal Melanocytes, neonatal, darkly pigmented donor (HEMn-DP). The HEMn-DP cells were seeded (Invitrogen; cat. #: C-202-5C) into 6-well tissue culture-treated plates (BD Falcon) and treated with test actives or controls in Medium 254 (Invitrogen; cat. #: M-254-500) supplemented with 1% HMSG (Invitrogen; cat. #: S-002-5) and 1% P/S. The cells were examined for their ability to modulate pigment formation. […] Tests were performed in triplicates each. Following the treatment period (5 days), supernatants were aspirated. The melanin was extracted with 0.5 ml of 2N NaOH for 30 minutes at 80° C. The level of melanin synthesized within the cells was quantified by reading the absorbance at 405 nm using a standard microplate reader (Tecan Group Ltd.).
The cell viability was determined using the MTT conversion method. The MTT conversion method measures the reduction of the MTT dye from a yellow colored, water-soluble, tetrazolium salt to a bluish-purple colored insoluble formazan precipitate by NAD(P)H-dependent microsomal dehydrogenase enzymes, which only function in viable cells. The intensity of the blue color is indicative of cell viability. […] The cells were then exposed to MTT dye solution (1 mg/ml) for two to three hours. Formazan material was solubilized with reagent alcohol (95% ethanol: 5% isopropanol) and shaken on an orbital shaker for 15-30 minutes. MTT dye uptake and conversion by viable cells were determined by measuring the extracted formazan at 570 nm using a microplate reader. Total pigmentation was calculated and normalized to cell viability values. The average percent change in melanin relative to control of the triplicates from the Human Primary Melanocyte Pigmentation Assay (HEMn-DP Pigmentation) is reported in the Table 3 in accordance with the scale: 0: <10% decrease in pigmentation level; +: between 11-30% decrease; ++: between 31-50% decrease; +++: between 51-70% decrease; ++++: >71% decrease; C=cytotoxic.

Mushroom tyrosinase = Mushroom tyrosinase assay; format: biochemical; settings: L-Tyrosine substrate, 25° C., 30 min
Experimental: Mushroom tyrosinase and L-Tyrosine were obtained from Sigma-Aldrich, Inc. (St. Louis, Mo.). The enzyme activity was measured in buffer containing 100 mM phosphate buffer pH 6.8, 5% absolute ethanol, 2 micrograms/milliliter mushroom tyrosinase, and 0.2 mg/ml L-Tyrosine. The reaction (conversion of L-Tyrosine to DOPAchrome) was conducted in triplicates at 25° C. for 30 min, and absorbance was then measured at 492 nm. Kojic Acid was used as a positive control inhibitor in these assays. Percent change in tyrosinase activity relative to vehicle control was calculated.

Row | Compound | 3D Tissue Pigmentation Assay (change in melanin compared to vehicle control) ([1]; concentration 0.05%) | 3D Tissue Pigmentation Assay (change in melanin compared to vehicle control) ([1]; concentration 0.1%) | B16 Assay Pigmentation Decrease (percent change in melanin compared to DMSO vehicle control) (B16 mouse melanoma cells; concentration 0.0001%) | Human primary melanocyte pigmentation assay (change in melanin compared to DMSO vehicle control) ([2]; concentration 0.0001%) | Human primary melanocyte pigmentation assay (change in melanin compared to DMSO vehicle control) ([2]; concentration 0.001%) | B16 Assay Pigmentation Decrease (percent change in melanin compared to DMSO vehicle control) (B16 mouse melanoma cells; concentration 0.001%) | Tyrosinase Inhibition (percent change in tyrosinase activity compared to DMSO vehicle control) (Mushroom tyrosinase; concentration 0.001%) [%] | Tyrosinase Inhibition (percent change in tyrosinase activity compared to DMSO vehicle control) (Mushroom tyrosinase; concentration 0.01%) [%]
1 | C/C(=N/NC(=S)NC(C)C)c1ccc2c(c1)OCO2 [AV2043] | +++ (between 21-30% decrease) | +++ (between 21-30% decrease) | ++ (31-50% decrease) | + (between 11-30% decrease) | ++ (between 31-50% decrease) | – | – | –
2 | C/C(=N/NC(=S)NCC1CCCO1)c1ccc2c(c1)OCO2 (centres unmarked) [AV1221] | +++ (between 21-30% decrease) | ++ (between 15-20% decrease) | ++ (31-50% decrease) | + (between 11-30% decrease) | ++++ (>71% decrease) | ++++ (>71% decrease) | – | –
3 | Oc1ccc(C=NNC(=S)NCC2CCCO2)c(O)c1 (centres unmarked) [AV6989] | – | – | −79% | – | – | – | −36 | −75
4 | Cc1ccc(/C=N/NC(=S)NCC2CCCO2)s1 (centres unmarked) [AV3793] | ++ (between 15-20% decrease) | +++ (between 21-30% decrease) | + (between 20-30% decrease) | 0 (<10% decrease in pigmentation level) | +++ (between 51-70% decrease) | +++ (between 51-70% decrease) | – | –
